Patent US10723727B2, “Tubulysin analogs and methods for their preparation” (priority 2016, dated 2020)

What was measured:
[1] = test system: N87 (gastric cancer) cells; test: In vitro cell assay (MTS cell viability), N87; format: cell-based; details: 96 h, free compounds; 96 hours after treatment
Procedure, shortened: (§1)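 Cells seeded 24 h before treatment with antibody-drug conjugates or free compounds, 3-fold serial dilutions at 10 concentrations in duplicate. Viability read by MTS assay 96 h after treatment as % of untreated control; IC50 from four-parameter logistic fit.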

[2] = molecular target: T1, tubulin/RB3-stathmin-like-domain (RB3-SLD-tdm) complex (Sus scrofa, UniProt P02550+P02554); test: Tubulin Peptide-Binding Site Competition Assay (fluorescence polarization); set-up: species or system Porcine; details: FP competition with BODIPY-labeled vinca peptide probe; read after five hours at 22° C.; read-out: Tubulin Peptide-Binding Site Competition Assay IC50
T1 construct: purchased Cytoskeleton, Inc. T240; host or cells: RB3-SLD was made in house in E. coli
Procedure, shortened: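 The BODIPY vinca-peptide probe was premixed with test compound and then added to porcine tubulin/RB3-SLD, at final concentrations of 3 nM probe, 6 nM tubulin and 100 nM RB3-SLD. The buffer was PIPES pH 7.0 with Tween 20, MgCl2 and EGTA, and 11-point dilutions were run in duplicate. IC50 was fitted from the fluorescence polarization decrease and converted to Ki.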

HT-29 cells = test: In vitro cell assay (MTS cell viability), HT-29 (target non-expressing); format: cell-based; details: Homo sapiens, HT-29, 96 h, free compounds; 96 hours after treatment; read-out: HT29 IC50
Procedure: In Vitro Cell Assay Procedure
Target expressing (BT474 (breast cancer), N87 (gastric cancer), HCC1954 (breast cancer), MDA-MB-361-DYT2 (breast cancer)) or non-expressing (HT-29) cells were seeded in 96-well cell culture plates for 24 hours before treatment. Cells were treated with 3-fold serially diluted antibody-drug conjugates or free compounds (i. e. no antibody conjugated to the drug) in duplicate at 10 concentrations. Cell viability was determined by CellTiter 96® AQueous One Solution Cell Proliferation MTS Assay (Promega, Madison Wis.) 96 hours after treatment. Relative cell viability was determined as percentage of untreated control. IC50 values were calculated using a four parameter logistic model #203 with XLfit v4. 2 (IDBS, Guildford, Surry, UK).

[3] = test system: MDA-MB-361-DYT2 (breast cancer) cells; test: In vitro cell assay (MTS cell viability), MDA-MB-361-DYT2; format: cell-based; details: 96 h, free compounds; 96 hours after treatment
Procedure, shortened: as §1

| Compound | IC50 [1] | IC50 [2] | IC50 (HT-29 cells) | IC50 [3] |
| --- | --- | --- | --- | --- |
| CC[C@H](C)[C@H](NC(=O)[C@@]1(C)CCCN1C)C(=O)N(C)[C@H](C[C@@H](OC(C)=O)c1nc(C(=O)N[C@@H](Cc2ccccc2)c2nccs2)cs1)C(C)C [#B78, 1,2-dimethyl-D-prolyl-N-[(1R,3R)-1-(acetyloxy)-4-methyl-1-(4-{[(1S)-2-phenyl-1-(1,3-thiazol-2-yl)ethyl]carbamoyl}-1,3-thiazol-2-yl)pentan-3-yl]-N-methyl-L-isoleucinamide] | 39.9 nM | 9.3 nM | 14.5 nM | 19.9 nM |
| CC[C@H](C)[C@H](NC(=O)[C@@]1(C)CCCN1C)C(=O)N(C)[C@H](C[C@@H](O)c1nc(C(=O)N[C@@H](Cc2ccc(N)cc2)C[C@H](C)C(=O)O)cs1)C(C)C [#B32, 1,2-dimethyl-D-prolyl-N-[(1R,3R)-1-(4-{[(2R,4S)-1-(4-aminophenyl)-4-carboxypentan-2-yl]carbamoyl}-1,3-thiazol-2-yl)-1-hydroxy-4-methylpentan-3-yl]-N-methyl-L-isoleucinamide] | > 100 nM | 12.3 nM | > 100 nM | > 100 nM |
| CC[C@H](C)[C@H](NC(=O)C12CC(CN1C)C2)C(=O)N(C)[C@H](C[C@@H](OC(C)=O)c1nc(C(=O)N[C@@H](Cc2ccccc2)C[C@H](C)C(=O)OC)cs1)C(C)C [#B17, methyl (2S,4R)-4-[({2-[(1R,3R)-1-(acetyloxy)-4-methyl-3-(methyl{N-[(2-methyl-2-azabicyclo[2.1.1]hex-1-yl)carbonyl]-L-isoleucyl}amino)pentyl]-1,3-thiazol-4-yl}carbonyl)amino]-2-methyl-5-phenylpentanoate] | 0.386 nM | 19.2 nM | 0.037 nM | 0.04 nM |
| CC[C@H](C)[C@H](NC(=O)[C@@]1(C)CCCN1C)C(=O)N(C)[C@H](C[C@@H](OC(C)=O)c1nc(C(=O)N[C@H](COCc2ccccc2)Cc2ccccc2)cs1)C(C)C [#B61, 1,2-dimethyl-D-prolyl-N-[(1R,3R)-1-(acetyloxy)-1-(4-{[(2S)-1-(benzyloxy)-3-phenylpropan-2-yl]carbamoyl}-1,3-thiazol-2-yl)-4-methylpentan-3-yl]-N-methyl-L-isoleucinamide] | 38.5 nM | 19.1 nM | 14.7 nM | 23.4 nM |
| CC[C@H](C)[C@H](NC(=O)[C@@]1(C)CCCN1C)C(=O)N(C)[C@H](C[C@@H](OC(C)=O)c1nc(C(=O)N[C@@H](Cc2ccc(N)cc2)c2nccs2)cs1)C(C)C [#B80, 1,2-dimethyl-D-prolyl-N-[(1R,3R)-1-(acetyloxy)-1-(4-{[(1S)-2-(4-aminophenyl)-1-(1,3-thiazol-2-yl)ethyl]carbamoyl}-1,3-thiazol-2-yl)-4-methylpentan-3-yl]-N-methyl-L-isoleucinamide] | 18.5 nM | 6.5 nM | 4.63 nM | 4.21 nM |
| CC[C@H](C)[C@H](NC(=O)[C@@]1(C)CCCN1C)C(=O)N(C)[C@H](C[C@@H](OC(C)=O)c1nc(C(=O)N[C@H](CNS(C)(=O)=O)Cc2ccccc2)cs1)C(C)C [#B58, 1,2-dimethyl-D-prolyl-N-{(1R,3R)-1-(acetyloxy)-4-methyl-1-[4-({(2S)-1-[(methylsulphonyl)amino]-3-phenylpropan-2-yl}carbamoyl)-1,3-thiazol-2-yl]pentan-3-yl}-N-methyl-L-isoleucinamide] | 5.63 nM | 5 nM | 1.49 nM | 2.26 nM |
| CC[C@H](C)[C@H](NC(=O)C12CC(CCN1C)C2)C(=O)N(C)[C@H](C[C@@H](OC(C)=O)c1nc(C(=O)N[C@@H](Cc2ccccc2)C[C@H](C)C(=O)OC)cs1)C(C)C [#B14, methyl (2S,4R)-4-[({2-[(1R,3R)-1-(acetyloxy)-4-methyl-3-(methyl{N-[(2-methyl-2-azabicyclo[3.1.1]hept-1-yl)carbonyl]-L-isoleucyl}amino)pentyl]-1,3-thiazol-4-yl}carbonyl)amino]-2-methyl-5-phenylpentanoate] | 0.337 nM | 11.5 nM | 0.063 nM | 0.017 nM |
| CC[C@H](C)[C@H](NC(=O)[C@@]1(C)CCCN1C)C(=O)N(C)[C@H](C[C@@H](OC(C)=O)c1nc(C(=O)N[C@@H](Cc2ccccc2)[C@@H](O)C(=O)OC)cs1)C(C)C [#B51, 1,2-dimethyl-D-prolyl-N-[(1R,3R)-1-(acetyloxy)-1-(4-{[(2S,3R)-3-hydroxy-4-methoxy-4-oxo-1-phenylbutan-2-yl]carbamoyl}-1,3-thiazol-2-yl)-4-methylpentan-3-yl]-N-methyl-L-isoleucinamide] | 7.78 nM | 11.7 nM | 2.2 nM | 2.94 nM |
| CCNC(=O)O[C@H](C[C@H](C(C)C)N(C)C(=O)[C@@H](NC(=O)[C@@]1(C)CCCN1C)[C@@H](C)CC)c1nc(C(=O)N[C@@H](Cc2ccc(N)cc2)C[C@H](C)C(=O)O)cs1 [#B21, 1,2-dimethyl-D-prolyl-N-{(1R,3R)-1-(4-{[(2R,4S)-1-(4-aminophenyl)-4-carboxypentan-2-yl]carbamoyl}-1,3-thiazol-2-yl)-1-[(ethylcarbamoyl)oxy]-4-methylpentan-3-yl}-N-methyl-L-isoleucinamide] | 1.87 nM | 1.9 nM | 1.62 nM | 1.93 nM |
| CC[C@H](C)[C@H](NC(=O)C12CCC(CC1)N2C)C(=O)N(C)[C@H](C[C@@H](OC(C)=O)c1nc(C(=O)N[C@@H](Cc2ccccc2)C[C@H](C)C(=O)OC)cs1)C(C)C [#B13, methyl (2S,4R)-4-[({2-[(1R,3R)-1-(acetyloxy)-4-methyl-3-{methyl[(2S,3S)-3-methyl-2-{[(7-methyl-7-azabicyclo[2.2.1]hept-1-yl)carbonyl]amino}pentanoyl]amino}pentyl]-1,3-thiazol-4-yl}carbonyl)amino]-2-methyl-5-phenylpentanoate] | < 0.061 nM | 3.7 nM | < 0.022 nM | < 0.036 nM |
| CC[C@H](C)[C@H](NC(=O)[C@@]1(C)CCCN1C)C(=O)N(C)[C@H](C[C@@H](OC(C)=O)c1nc(C(=O)N[C@@H](Cc2ccccc2)C(O)c2nccs2)cs1)C(C)C (stereo partly drawn) [#B62, 1,2-dimethyl-D-prolyl-N-[(1R,3R)-1-(acetyloxy)-1-(4-{[(2S)-1-hydroxy-3-phenyl-1-(1,3-thiazol-2-yl)propan-2-yl]carbamoyl}-1,3-thiazol-2-yl)-4-methylpentan-3-yl]-N-methyl-L-isoleucinamide] | 10.4 nM | 4.7 nM | 2.26 nM | 2.65 nM |
| CC[C@H](C)[C@H](NC(=O)C12CCCC(CCC1)N2C)C(=O)N(C)[C@H](C[C@@H](OC(C)=O)c1nc(C(=O)N[C@@H](Cc2ccccc2)C[C@H](C)C(=O)OC)cs1)C(C)C [#B16, methyl (2S,4R)-4-[({2-[(1R,3R)-1-(acetyloxy)-4-methyl-3-(methyl{N-[(9-methyl-9-azabicyclo[3.3.1]non-1-yl)carbonyl]-L-isoleucyl}amino)pentyl]-1,3-thiazol-4-yl}carbonyl)amino]-2-methyl-5-phenylpentanoate] | < 0.042 nM | 10.4 nM | < 0.026 nM | < 0.064 nM |
| CCNC(=O)O[C@H](C[C@H](C(C)C)N(C)C(=O)[C@@H](NC(=O)C12CCC(CC1)N2C)[C@@H](C)CC)c1nc(C(=O)N[C@@H](Cc2ccc(N)cc2)C[C@H](C)C(=O)O)cs1 [#B26, (2S,4R)-5-(4-aminophenyl)-4-{[(2-[(6R,8R,11S)-11-[(2S)-butan-2-yl]-9-methyl-13-(7-methyl-7-azabicyclo[2.2.1]hept-1-yl)-4,10,13-trioxo-8-(propan-2-yl)-5-oxa-3,9,12-triazatridecan-6-yl]-1,3-thiazol-4-yl}carbonyl)amino]-2-methylpentanoic acid] | 7.78 nM | < 0.5 nM | 8.83 nM | 8.27 nM |
| CC[C@H](C)[C@H](NC(=O)[C@@]1(C)CCCN1C)C(=O)N(C)[C@H](C[C@@H](OC(=O)NC)c1nc(C(=O)N[C@@H](Cc2ccc(N)cc2)C[C@H](C)C(=O)O)cs1)C(C)C [#B30, 1,2-dimethyl-D-prolyl-N-{(1R,3R)-1-(4-{[(2R,4S)-1-(4-aminophenyl)-4-carboxypentan-2-yl]carbamoyl}-1,3-thiazol-2-yl)-4-methyl-1-[(methylcarbamoyl)oxy]pentan-3-yl}-N-methyl-L-isoleucinamide] | 2.67 nM | 3.2 nM | 1.81 nM | 3.27 nM |
| CC[C@H](C)[C@H](NC(=O)[C@@]1(C)CCCN1C)C(=O)N(C)[C@H](C[C@@H](OC(C)=O)c1nc(C(=O)NCCc2cscn2)cs1)C(C)C [#B76, 1,2-dimethyl-D-prolyl-N-[(1R,3R)-1-(acetyloxy)-4-methyl-1-(4-{[2-(1,3-thiazol-4-yl)ethyl]carbamoyl}-1,3-thiazol-2-yl)pentan-3-yl]-N-methyl-L-isoleucinamide] | 87.7 nM | 19.9 nM | 37.4 nM | 42 nM |
